Converted amounts (≈) assume the structure as drawn.

For data set [1] the following is noted: semaglutide: based on the known highest dosage form for subcutaneous injection; cited from earlier work.
Data set [2] is described as follows: Estimated bioavailability of sublingual relative to subcutaneous delivery (blood glucose lowering at 24 h). Also on record: species or system db/db mice. As to conditions: male, db/db, mouse, in vivo, bioavailability of sublingually administered GLP-1 RA-P relative to subcutaneous administration.
From the text: The term “bioavailability of GLP-1 RA-P” as used herein refers to an estimated bioavailability of a sublingually administered GLP-1 RA-P in relative to that achieved by subcutaneous injection. Accordingly, the “bioavailability of GLP-1 RA-P” is expressed as a percentage of bioavailability achieves by subcutaneous injected GLP-1 RA-P. To estimate the bioavailability of sublingual delivery in relative to subcutaneous delivery in db/db mice, the blood glucose-lowering effects of two sublingual doses of varying amounts were compared with one subcutaneous dose of a specific amount at the 24-hour time point (just before the third sublingual dose). […] By comparing the combined effect of the two sublingual doses to the subcutaneous dose, the relative bioavailability is estimated.
Further, blood glucose levels in db/db mice are highly sensitive to changes in GLP-1 RA-P drug concentrations, making glucose measurements a reliable indicator of the drug's availability in the bloodstream. In the experiments described in this study, the db/db mouse model was used to evaluate the efficiency of sublingual drug delivery, estimate bioavailability via sublingual versus subcutaneous administration, and examine the cumulative effects of repeated sublingual dosing.
For these experiments, 30 male db/db mice, aged 6 weeks and weighing 35-40 g, were used. […]

Take `CC[C@H](C)[C@H](NC(=O)[C@H](Cc1ccccc1)NC(=O)[C@H](CCC(=O)O)NC(=O)[C@H](CCCCNC(=O)COCCOCCNC(=O)COCCOCCNC(=O)CC[C@H](NC(=O)CCCCCCCCCCCCCCCCC(=O)O)C(=O)O)NC(=O)[C@H](C)NC(=O)[C@H](C)NC(=O)[C@H](CCC(N)=O)NC(=O)CNC(=O)[C@H](CCC(=O)O)NC(=O)[C@H](CC(C)C)NC(=O)[C@H](Cc1ccc(O)cc1)NC(=O)[C@H](CO)NC(=O)[C@H](CO)NC(=O)[C@@H](NC(=O)[C@H](CC(=O)O)NC(=O)[C@H](CO)NC(=O)[C@@H](NC(=O)[C@H](Cc1ccccc1)NC(=O)[C@@H](NC(=O)CNC(=O)[C@H](CCC(=O)O)NC(=O)C(C)(C)NC(=O)[C@@H](N)Cc1cnc[nH]1)[C@@H](C)O)[C@@H](C)O)C(C)C)C(=O)N[C@@H](C)C(=O)N[C@@H](Cc1c[nH]c2ccccc12)C(=O)N[C@@H](CC(C)C)C(=O)N[C@H](C(=O)N[C@@H](CCCNC(=N)N)C(=O)NCC(=O)N[C@@H](CCCNC(=N)N)C(=O)NCC(=O)O)C(C)C` [semaglutide]: the “solubility in aqueous buffer” value in data set [1] is 3200 µg/mL (≈ 778 µM). Take `CC[C@H](C)[C@H](NC(=O)[C@H](CC(C)C)NC(=O)[C@H](Cc1c[nH]c2ccccc12)NC(=O)[C@H](CCC(N)=O)NC(=O)[C@@H](NC(=O)[C@H](Cc1ccccc1)NC(=O)[C@H](C)NC(=O)[C@H](CCCCNC(=O)COCCOCCNC(=O)COCCOCCNC(=O)CC[C@H](NC(=O)CCCCCCCCCCCCCCCCCCC(=O)O)C(=O)O)NC(=O)[C@H](CCC(N)=O)NC(=O)[C@H](C)NC(=O)[C@@H](NC(=O)[C@H](CCCCN)NC(=O)[C@H](CC(=O)O)NC(=O)[C@H](CC(C)C)NC(=O)C(C)(C)NC(=O)[C@@H](NC(=O)[C@H](CO)NC(=O)[C@H](Cc1ccc(O)cc1)NC(=O)[C@H](CC(=O)O)NC(=O)[C@H](CO)NC(=O)[C@@H](NC(=O)[C@H](Cc1ccccc1)NC(=O)[C@@H](NC(=O)CNC(=O)[C@H](CCC(=O)O)NC(=O)C(C)(C)NC(=O)[C@@H](N)Cc1ccc(O)cc1)[C@@H](C)O)[C@@H](C)O)[C@@H](C)CC)[C@@H](C)CC)C(C)C)C(=O)N[C@@H](C)C(=O)NCC(=O)NCC(=O)N1CCC[C@H]1C(=O)N[C@@H](CO)C(=O)N[C@@H](CO)C(=O)NCC(=O)N[C@@H](C)C(=O)N1CCC[C@H]1C(=O)N1CCC[C@H]1C(=O)N1CCC[C@H]1C(=O)N[C@@H](CO)C(N)=O` [tirzepatide]: in data set [2], the bioavailability at 24 h is 10%.

Source of the values: patent publication US20250241994A1, “PHARMACEUTICAL FORMULATION OF GLUCAGON-LIKE PEPTIDE -1 RECEPTOR AGONIST PEPTIDE FOR SUBLINGUAL DELIVERY” (Immunwork Inc., priority 2024, published 2025).
